One assay concerns HT-1080. Description: Cytotoxicity against human HT1080 cells assessed as growth inhibition after 48 hrs by CCK8 assay. Format: functional, cell-based. As to conditions: HT-1080, 48 h.
In assay [1] the target is T1, Glutaminase kidney isoform, mitochondrial (Homo sapiens, UniProt O94925).
T1 sequence (O94925 whole entry): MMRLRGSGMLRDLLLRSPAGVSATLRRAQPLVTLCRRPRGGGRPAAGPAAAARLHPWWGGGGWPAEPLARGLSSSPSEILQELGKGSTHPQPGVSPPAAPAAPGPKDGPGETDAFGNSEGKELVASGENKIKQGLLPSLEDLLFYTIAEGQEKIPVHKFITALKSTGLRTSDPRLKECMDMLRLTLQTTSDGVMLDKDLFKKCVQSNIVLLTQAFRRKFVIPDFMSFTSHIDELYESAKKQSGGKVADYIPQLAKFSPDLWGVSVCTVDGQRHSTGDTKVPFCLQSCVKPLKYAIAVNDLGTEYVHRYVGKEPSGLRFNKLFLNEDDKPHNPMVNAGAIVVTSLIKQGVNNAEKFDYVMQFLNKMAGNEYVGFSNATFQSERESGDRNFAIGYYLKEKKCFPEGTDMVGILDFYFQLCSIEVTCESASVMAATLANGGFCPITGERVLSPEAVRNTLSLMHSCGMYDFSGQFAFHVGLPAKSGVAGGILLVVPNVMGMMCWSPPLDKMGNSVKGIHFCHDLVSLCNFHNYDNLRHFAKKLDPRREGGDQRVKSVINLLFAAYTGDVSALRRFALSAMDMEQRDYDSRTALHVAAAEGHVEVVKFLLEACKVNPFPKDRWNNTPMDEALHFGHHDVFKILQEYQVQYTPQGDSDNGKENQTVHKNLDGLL
The assay can be described thus: Inhibition of recombinant KGA (unknown origin) using glutamine as substrate.

A further assay concerns HCC827. Description: Cytotoxicity against human erlotinib-resistant HCC827 cells assessed as growth inhibition after 48 hrs by CCK8 assay. Particulars: HCC827, 48 h. Format: functional, cell-based.
In a further assay the test system is L02. The assay can be described thus: Cytotoxicity against human LO2 cells assessed as growth inhibition after 48 hrs by CCK8 assay. Format: cell-based. As to conditions: L02, 48 h.
The subject of another assay is L929. The assay can be described thus: Cytotoxicity against mouse L929 cells assessed as growth inhibition after 48 hrs by CCK8 assay. Format: cell-based. As to conditions: L929, 48 h.
The target in assay [2] is T2, Glutaminase kidney isoform, mitochondrial (Homo sapiens) (UniProt O94925).
T2 sequence (whole entry): T1 sequence (O94925 whole entry)
Description: Competitive inhibition of recombinant KGA (unknown origin) at 40 uM using varying levels of glutamine substrate measured within 1 to 4 mins.

A further assay relates to Vero. Description: Cytotoxicity against monkey Vero cells assessed as growth inhibition after 48 hrs by CCK8 assay. Format: cell-based. Particulars: Chlorocebus sabaeus.
Assay [3] has as its target T1, Glutaminase kidney isoform, mitochondrial. Description: Binding affinity to NT-647-NHS-labelled KGA (unknown origin) after 10 mins by microscale thermophoresis method.

Calls of active or inactive are those of the source. The rule behind the calls is not given here. Bounds are passed on as bounds.

Take `C[C@@H]([C@H]1CC[C@H]2[C@@H]3CC=C4C[C@@H](O[C@@H]5O[C@H](CO[C@@H]6O[C@H](CO)[C@@H](O)[C@H](O)[C@H]6O)[C@@H](O)[C@H](O)[C@H]5O)C[C@H](O)[C@]4(C)[C@H]3CC[C@]12C)[C@H]1C[C@](C)(O)[C@](C)(O)C(=O)O1`: the half-inhibitory concentration (IC50) with HT-1080 was more than 200 µM; in assay [1] it was more than 100 µM; in the assay on HCC827 it was more than 200 µM.
For `C[C@@H]([C@H]1CC[C@H]2[C@@H]3CC=C4C[C@@H](O)C[C@H](O)[C@]4(C)[C@H]3CC[C@]12C)[C@H]1C[C@@](C)(O)[C@](C)(O)C(O)O1` (some centres not stated), the concentration for half-maximal inhibition (IC50) was more than 200 µM in the assay with HT-1080, more than 100 µM in assay [1] and more than 200 µM in the assay on HCC827.
In the case of `CO[C@@H]1O[C@@H]([C@@H](C)[C@H]2CC[C@H]3[C@@H]4CC=C5C[C@@H](O[C@@H]6O[C@H](CO[C@@H]7O[C@H](CO)[C@@H](O)[C@H](O)[C@H]7O)[C@@H](O)[C@H](O)[C@H]6O)C[C@H](O)[C@]5(C)[C@H]4CC[C@]23C)C[C@](C)(OC)[C@]1(C)O`, the IC50 was more than 200 µM in the assay with HT-1080, more than 100 µM in assay [1] and more than 200 µM with HCC827.
On to `O=C(Cc1cccc(OC(F)(F)F)c1)Nc1ccc(CCCCc2nnc(NC(=O)Cc3ccccn3)s2)nn1`, for which the concentration for half-maximal inhibition (IC50) in the assay with HT-1080 turned out to be 44.4 µM; with HCC827, 51.4 µM.
As to `C[C@@H]([C@H]1CC[C@H]2[C@@H]3CC=C4C[C@@H](O[C@@H]5O[C@H](CO[C@@H]6O[C@H](CO)[C@@H](O)[C@H](O)[C@H]6O)[C@@H](O)[C@H](O)[C@H]5O)C[C@H](O)[C@]4(C)[C@H]3CC[C@]12C)[C@H]1C[C@@](C)(O)[C@](C)(O)C(O)O1` (some centres not stated), the IC50 in the assay on HT-1080 was more than 200 µM; in assay [1], more than 100 µM; in the assay with HCC827 it was more than 200 µM.
In the case of `CC(=O)O[C@H]1C[C@H]([C@H](C)[C@H]2C[C@]3(C)O[C@]3(C)[C@H](O)O2)[C@@]2(C)CC[C@H]3[C@@H](C[C@@H]4O[C@]45[C@@H](O)C=CC(=O)[C@]35C)[C@H]12`, the IC50 with L02 stood at 10.4 µM; with HT-1080, 6.99 µM; in assay [1] it was 9.89 µM; with L929, 10.4 µM; with Vero, 12.4 µM; with HCC827, 2.76 µM. Further, the inhibition result in assay [2] was “Active”. Also, in assay [3], the Kd was 4.95 µM.
Regarding `O=C(Cc1ccccc1)Nc1nnc(CCSCCc2nnc(NC(=O)Cc3ccccc3)s2)s1`, the IC50 with HT-1080 came to 47.7 µM; in the assay on HCC827, 42.4 µM.
Consider `C[C@@H]([C@H]1CC[C@H]2[C@@H]3CC=C4C[C@@H](O)C[C@H](O)[C@]4(C)[C@H]3CC[C@]12C)[C@H]1C[C@](C)(O)[C@](C)(O)C(=O)O1`, for which the IC50 in the assay on HT-1080 was more than 200 µM; in assay [1] it was more than 100 µM; with HCC827 it was more than 200 µM.

For the origin of these results see ChEMBL document CHEMBL3994651, “Physapubescin, a natural withanolide as a kidney-type glutaminase (KGA) inhibitor” (Bioorg Med Chem Lett, 2017).
